Measured values as given in patent US20240376100A1 (Redona Therapeutics, Inc., priority 2021, published 2024).

Target: PAPD5 enzyme (Homo sapiens, UniProt Q8NDF8)
Assay: PAPD5 assay (AMP incorporation onto 3'-terminus of RNA substrate, fluorescence quench)
Assay type: biochemical
Details: PAPD5 protein 0.3 nM, ATP 50 μM, 30 minutes preincubation, room temperature; read-out: Potency PAPD5 IC50
Procedure, shortened: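 Enzyme at 0.3 nM with 50 μM ATP, pH 7.3 HEPES buffer, preincubated with compound 30 minutes at room temperature; 5 nM 5′-fluorescein RNA substrate and 20 nM TAMRA quench probe then added. Initial rates from kinetic fluorescein decrease over ~90 minutes; IC50 by four-parameter fit.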

Sequence of PAPD5 enzyme (Q8NDF8 whole entry): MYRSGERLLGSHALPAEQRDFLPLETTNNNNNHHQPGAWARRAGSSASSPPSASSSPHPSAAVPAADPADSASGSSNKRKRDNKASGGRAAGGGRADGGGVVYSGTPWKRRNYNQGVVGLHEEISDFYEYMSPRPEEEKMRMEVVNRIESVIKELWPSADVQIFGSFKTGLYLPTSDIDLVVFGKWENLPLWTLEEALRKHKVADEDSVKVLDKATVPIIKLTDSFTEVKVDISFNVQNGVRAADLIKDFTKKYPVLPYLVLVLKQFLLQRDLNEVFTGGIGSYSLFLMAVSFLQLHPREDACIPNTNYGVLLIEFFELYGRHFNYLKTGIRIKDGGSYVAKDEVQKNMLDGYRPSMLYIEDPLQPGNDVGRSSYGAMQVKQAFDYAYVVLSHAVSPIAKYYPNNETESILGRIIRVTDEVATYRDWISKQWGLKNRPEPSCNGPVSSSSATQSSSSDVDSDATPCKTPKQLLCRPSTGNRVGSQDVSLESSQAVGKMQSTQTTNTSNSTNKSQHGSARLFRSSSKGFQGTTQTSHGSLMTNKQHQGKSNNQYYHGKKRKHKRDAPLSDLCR

Structure (SMILES)	IC50 [nM]
O=C(O)c1cn(Cc2c[nH]cn2)c2cc(N3Cc4cccnc4C3)c(Cl)cc2c1=O [Example 85, 1-((1H-imidazol-4-yl)methyl)-6-chloro-7-(5,7-dihydro-6H-pyrrolo[3,4-b]pyridin-6-yl)-4-oxo-1,4-dihydroquinoline-3-carboxylic acid]	≤ 1000
Cc1cc(N(C)C)ncc1-n1cc(C(=O)O)c(=O)c2cc(F)c(N3Cc4cccnc4C3)cc21 [Example 86, 7-(5,7-dihydro-6H-pyrrolo[3,4-b]pyridin-6-yl)-1-(6-(dimethylamino)-4-methylpyridin-3-yl)-6-fluoro-4-oxo-1,4-dihydroquinoline-3-carboxylic acid]	≤ 1000
CNc1cc(C)c(-n2cc(C(=O)O)c(=O)c3cc(F)c(N4Cc5cccnc5C4)cc32)cn1 [Example 87, 7-(5,7-dihydro-6H-pyrrolo[3,4-b]pyridin-6-yl)-6-fluoro-1-(4-methyl-6-(methylamino)pyridin-3-yl)-4-oxo-1,4-dihydroquinoline-3-carboxylic acid]	≤ 1000
CCOC(=O)c1cn(-c2ccc(O)nc2)c2cc(N3Cc4cccnc4C3)c(Cl)cc2c1=O [Example 88, Ethyl 6-chloro-1-(6-hydroxypyridin-3-yl)-4-oxo-7-{5H,7H-pyrrolo[3,4-b]pyridin-6-yl}quinoline-3-carboxylate]	≤ 1000
CCOC(=O)c1cn(-c2ccc(N)nc2)c2cc(N3Cc4cccnc4C3)c(Cl)cc2c1=O [Example 89]	≤ 1000
CCOC(=O)c1cn(-c2ccc(Cl)nc2)c2cc(N3Cc4cccnc4C3)c(Cl)cc2c1=O [Example 90, Ethyl 6-chloro-1-(6-chloropyridin-3-yl)-7-(5,7-dihydro-6H-pyrrolo[3,4-b]pyridin-6-yl)-4-oxo-1,4-dihydroquinoline-3-carboxylate]	≤ 1000
Cc1cc(N2CCC2)ncc1-n1cc(C(=O)O)c(=O)c2cc(Cl)c(N3Cc4cccnc4C3)nc21 [Example 91, 1-(6-(azetidin-1-yl)-4-methylpyridin-3-yl)-6-chloro-7-(5,7-dihydro-6H-pyrrolo[3,4-b]pyridin-6-yl)-4-oxo-1,4-dihydro-1,8-naphthyridine-3-carboxylic acid]	≤ 1000
CN(CCO)c1ccn(-c2cc3c(cc2Cl)c(=O)c(C(=O)O)cn3-c2ccc(N)nc2)n1 [Example 92, 1-(6-aminopyridin-3-yl)-6-chloro-7-(3-((2-hydroxyethyl)(methyl)amino)-1H-pyrazol-1-yl)-4-oxo-1,4-dihydroquinoline-3-carboxylic acid]	≤ 1000
CN(CCO)c1ccn(-c2nc3c(cc2Cl)c(=O)c(C(=O)O)cn3-c2ccc(N)nc2)n1 [Example 93, 1-(6-aminopyridin-3-yl)-6-chloro-7-(3-((2-hydroxyethyl)(methyl)amino)-1H-pyrazol-1-yl)-4-oxo-1,4-dihydro-1,8-naphthyridine-3-carboxylic acid]	≤ 1000
COCCN(C)c1ccn(-c2cc3c(cc2Cl)c(=O)c(C(=O)O)cn3-c2ccc(N)nc2)n1 [Example 94, 1-(6-aminopyridin-3-yl)-6-chloro-7-(3-((2-methoxyethyl)(methyl)amino)-1H-pyrazol-1-yl)-4-oxo-1,4-dihydroquinoline-3-carboxylic acid]	≤ 1000
COCCN(C)c1ccn(-c2nc3c(cc2Cl)c(=O)c(C(=O)O)cn3-c2ccc(N)nc2)n1 [Example 95, 1-(6-aminopyridin-3-yl)-6-chloro-7-(3-((2-methoxyethyl)(methyl)amino)-1H-pyrazol-1-yl)-4-oxo-1,4-dihydro-1,8-naphthyridine-3-carboxylic acid]	≤ 1000
N#Cc1cc2c(=O)c(C(=O)O)cn(-c3cnc(N)cn3)c2cc1N1Cc2cccnc2C1 [Example 96, 1-(5-aminopyrazin-2-yl)-6-cyano-7-(5,7-dihydro-6H-pyrrolo[3,4-b]pyridin-6-yl)-4-oxo-1,4-dihydroquinoline-3-carboxylic acid]	≤ 1000
